From paper PMC3969379, “Neospora caninum Calcium-Dependent Protein Kinase 1 Is an Effective Drug Target for Neosporosis Therapy” (PLoS ONE, 2014)
Where two headings read alike, the source gives them in different places.

Experiments:
recombinant NcCDPK1 = recombinant NcCDPK1 (Neospora caninum, UniProt F0V9W9); test: biochemical
Description: Protein kinase activity of recombinant NcCDPK1 and inhibition of its kinase phosphorylation properties by BKIs was measured in a non-radioactive assay using Kinase-Glo luciferase reagent (Promega, Madison, WI). This luminescence based assay measures kinase activity in the presence or absence of inhibitors by reporting changes in initial ATP concentration after NcCDPK1 phosphorylation of biotinylated Syntide-2 peptide substrate (Biotin-C6-[…]) (BioSyntide-2) (American Peptide Company, Inc. Sunnyvale, CA), [40]. […] The reaction was initiated by the addition of 10 μM ATP and incubated for 90 minutes at 30°C. Changes in initial ATP concentration was evaluated as a luminescence readout using a MicroBeta2 multi-label plate reader (Perkin Elmer, Waltham, MA).

N. caninum tachyzoites = test: N. caninum-β-gal tachyzoite proliferation in HFF, 3 days; format: cell-based; conditions: Neospora caninum, read-out: EC50 N. caninum
Description: Transgenic N. caninum tachyzoites expressing beta-galactosidase under a constitutive promoter (N. caninum-β-gal) were grown in Vero cells and were separated from host cell components as previously described. Human foreskin fibroblasts (HFF) at 5×10^3 cells per well in phenol-red free culture medium were incubated at 37°C with 5% CO2 and were grown to confluence in a 96-well plate. […] Cultures were infected with N. caninum-β-gal tachyzoites (1×10^3 per well). After three days at 37°C/5% CO2, plates were centrifuged at 500 g, medium was removed, and cell cultures were lysed in PBS containing 0.05% Triton-X-100. After addition of 10 μL of 5 mM chlorophenol red-b-D-galactopyranoside (CPRG; Roche Diagnostics, Rotkreuz, Switzerland) dissolved in PBS, the absorption shift was measured at 570 nm wavelength at various time points on a VersaMax multiplate reader (Bucher Biotec, Basel, Switzerland). The activity, measured as the release of chlorophenol red over time, was proportional to the number of life parasites down to 50 per well as determined in pilot assays. EC50 values were calculated after the logit-log-transformation of relative growth and subsequent regression analysis by the corresponding software tool contained in the Excel software package (Microsoft, Seattle, WA).

T. gondii = conditions: cited from earlier work
[1] = system: N. caninum tachyzoites in HFF; test: Host cell invasion assay, BKI treatment pre- and post-infection (β-galactosidase); format: cell-based, Neospora caninum
Description: Control wells with equal volume of DMSO were also included per reaction plate. Two hours after initiating the experiment, the cells were washed. Selected untreated assay plates were treated with 1294 for 60 minutes after the initial wash with medium. All the assay plates were incubated for one hour before a final wash and reading the beta-galactosidase activity.

N. caninum = N. caninum infected Balb/c mice, cerebral parasite load by real time PCR; format: in vivo
Cryptosporidium parvum = system: Cryptosporidium parvum; set-up: method as in PMID 23878324; conditions: in vitro and in vivo; cited from earlier work
malaria transmission = system: malaria transmission; set-up: method as in PMID 24123773; conditions: cited from earlier work
[2] = cited from earlier work
[3] = concentration that inhibits protein kinase activity by 50%, 10 μM ATP, 40 μM BioSyntide-2, 3.3 nM enzyme, read-out: IC50 NcCDPK1
[4] = 72 h, concentration that inhibits cell growth by 50%, tachyzoites in HFF, 3 days

Chain of recombinant NcCDPK1 (F0V9W9 entry or part of it): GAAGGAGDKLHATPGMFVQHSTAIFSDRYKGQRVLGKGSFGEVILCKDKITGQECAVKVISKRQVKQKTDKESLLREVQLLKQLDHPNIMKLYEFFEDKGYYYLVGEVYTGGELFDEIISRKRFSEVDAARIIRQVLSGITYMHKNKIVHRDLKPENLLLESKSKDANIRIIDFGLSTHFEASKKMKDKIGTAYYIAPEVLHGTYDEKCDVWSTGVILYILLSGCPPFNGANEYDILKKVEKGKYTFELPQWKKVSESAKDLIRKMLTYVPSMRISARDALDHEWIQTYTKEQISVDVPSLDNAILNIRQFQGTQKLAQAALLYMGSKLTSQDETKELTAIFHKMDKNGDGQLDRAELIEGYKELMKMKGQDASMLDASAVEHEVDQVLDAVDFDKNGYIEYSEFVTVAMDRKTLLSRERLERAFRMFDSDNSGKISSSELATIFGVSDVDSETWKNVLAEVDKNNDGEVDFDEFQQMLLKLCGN

CC(C)(C)n1nc(-c2ccc3ccccc3c2)c2c(N)ncnc21 [11b]
IC50 (recombinant NcCDPK1; [3]): 1.7 nM
EC50 (N. caninum tachyzoites; [4]): 140 nM
EC50 (T. gondii): 347 nM

CCOc1ccc2cc(-c3nn(C4CCN(C)CC4)c4ncnc(N)c34)ccc2c1 [15h]
IC50 (recombinant NcCDPK1; [3]): 1.4 nM
EC50 (N. caninum tachyzoites; [4]): 55 nM
EC50 (T. gondii): 50 nM

CCOc1ccc2cc(-c3nn(C4CCN(CC)CC4)c4ncnc(N)c34)ccc2c1 [15i]
IC50 (recombinant NcCDPK1; [3]): 2.3 nM
EC50 (N. caninum tachyzoites; [4]): 99 nM
EC50 (T. gondii): 90 nM

CCOc1ccc2cc(-c3nn(CC4CCNCC4)c4ncnc(N)c34)ccc2c1 [15n]
EC50 (N. caninum tachyzoites; [4]): 50 nM
EC50 (T. gondii): 52 nM

CCOc1ccc2cc(-c3nn(CC4CCNCC4)c4ncnc(N)c34)ccc2n1 [16n]
IC50 (recombinant NcCDPK1; [3]): 1.7 nM
EC50 (N. caninum tachyzoites; [4]): 49 nM

CCOc1ccc2cc(-c3nn(CC4CCN(C)CC4)c4ncnc(N)c34)ccc2c1 [compound 1294]
IC50 (recombinant NcCDPK1): 2.6 nM
EC50 (N. caninum tachyzoites; HFF-3, 72 h): 32 nM
beta-galactosidase activity (host cell invasion) ([1]; 5 μM added after the infection phase of 2 hours, p>0.2): no difference
beta-galactosidase activity (host cell invasion) ([1]; 5 μM added at 60, 90 and 115 minutes after initiation of infection): no significant difference
beta-galactosidase activity (host cell invasion) ([1]; 5 μM added at initiation of HFF infection, 2 hours, vs 1266 or DMSO, p<0.001): significant decrease
cerebral parasite load vs placebo group (N. caninum; group B: 50 mg/kg oral daily from day 3 post infection for 5 days, P = 0.0139): tendency towards reduced parasite load
cerebral parasite load vs placebo group (N. caninum; group C: 50 mg/kg oral daily from day 3 post infection for 10 days, P = 0.0047): clearly the most effective
reduction of cerebral parasite burden compared to untreated control (N. caninum; oral 50 mg/kg for 5 days, established murine neosporosis): 10 fold
EC50 (T. gondii): 137 nM
activity against Cryptosporidium parvum cell growth (Cryptosporidium parvum): profound in vitro and in vivo activity
malaria transmission blocking (malaria transmission): excellent malaria transmission blocking properties
pharmacokinetic data [2]: favorable absorption with low clearance
toxicity in mammalian cells and rodents ([2]; in vivo): low toxicity

CCOc1ccc2cc(-c3nn(CC4CCOCC4)c4ncnc(N)c34)ccc2n1 [compound 1412]
IC50 (recombinant NcCDPK1; [3]): 2 nM
EC50 (N. caninum tachyzoites; [4]): 119 nM
